Test results as given in patent publication US8865741B2, “Aminoindane compounds and use thereof in treating pain” (Asana Biosciences, LLC, priority 2011, dated 2014).

Tested on: sodium channel in hTRPV1-N1E115 cells
Assay: FLIPR membrane potential assay of sodium channel response in hTRPV1-N1E115 cells, with (47° C.) or without (25° C.) heat activation of hTRPV1
Format: cell-based
Conditions: for IC50: 47° C., class symbols, read-out: hTRPV1-N1E IC50 (μM) 47° C.; for hTRPV1-N1E Nav 0.1 mM (% inhibition) 25° C. / hTRPV1-N1E Nav 1 mM (% inhibition) 25° C.: 25° C. (no heat activation of hTRPV1); for hTRPV1-N1E Nav 0.1 mM (% inhibition) 47° C. / hTRPV1-N1E Nav 1 mM (% inhibition) 47° C.: 47° C. (heat activation of hTRPV1)
Text: In one embodiment, a modified FLIPR® (Fluorometric Imaging Plate Reader) based assay system was developed which is capable of discriminating between non-specific versus hTRPV1-mediated entry of test compounds. Advantageously, the assay system utilizes heat activated opening of hTRPV1 channels followed by an assessment of internal sodium channel block. The assay allows a permanently charged compound to selectively enter through opened hTRPV1 channels and that compound's potency in inhibiting sodium channels from the cytoplasm side of the same cell can be assessed and quantified.
The assay is readily performed in multi-well assay plates into which cells in growth media are added and incubated under conditions which permit the formation of a confluent monolayer over a period of hours prior to the start of the assay. Conventional culture media and conditions may be utilized. Duplicate cell assay plates are prepared for each experiment.
The spent media from the cell seeded plates is removed on the day of the assay and replaced with Membrane potential Dye-Blue (Molecular Devices). The dye was prepared in assay buffer following manufacturer's instructions. The dye-loaded plate is incubated at room temperature (about 25° C.) for about 30 minutes in order to pre-load the cells with dye. Optionally, the cells may be loaded with the dye simultaneously with adding the test compounds.
The test compounds are diluted in the Assay Buffer and added to each well of a specific 384-well ‘compound plate’, which serves as a source plate for compound addition using the FLIPR® platform. The concentration of compounds in the compound-plate was adjusted to achieve the desired final concentration when added to the cells in the ‘cell-plate’. After completion of the dye incubation period, the dye loaded cell-plates and the compound source plates are inserted into the FLIPR® Tetra™ device with a 384 FLIPR® tip box (Molecular Devices, Inc.) according to manufacturer's instructions. The compounds are robotically added to the dye loaded cell-plates using software integral to the FLIPR® Tetra™ instrument.
Immediately following compound addition, hTRPV1 is activated, in one of the duplicate cell plates, by heating. Specifically, entire multi-well plate containing the compound-cells mixture is incubated at 47° C. for 10 minutes, after which they are returned to room temperature (about 25° C.) for a further 30 minutes. Heat activation of hTRPV1 was omitted from the replicate cell plate which was simply maintained at room temperature for the entire 40 minutes.
A membrane potential response is elicited in the dye- and compound-loaded cells by the addition of veratridine which is a known sodium channel ‘agonist’. As illustrated in an example herein, an agonist plate containing veratridine (Sigma) is prepared in advance and is inserted into suitable devices such as, e.g., the FLIPR® TETRA® device for a “2nd addition” as instructed by the manufacturer. The concentration of veratridine in the ‘agonist plate’ was adjusted to achieve a final concentration of 100 μM when added to the cells in the cell-plate. Final concentrations of veratridine greater or lesser than 100 μM may also be used but the signal measured by the FLIPR®^Tetra™ device or another suitable device may vary accordingly.
The exposure of the cells in the cell-plate to veratridine induces sodium channels in the cells to open and the resulting ion flux produces a membrane potential depolarization that is detected as a fluorescence signal by the FLIPR® ^Tetra™ Device. The activity of test compounds is determined by their ability to attenuate the veratridine-induced fluorescence signal, the most promising compounds are those that show an enhanced activity in the heat-activated cell plate over the non-heat-activated cell plate. […]

| SMILES | IC50 | hTRPV1-N1E Nav 0.1 mM (% inhibition) 25° C. | hTRPV1-N1E Nav 0.1 mM (% inhibition) 47° C. | hTRPV1-N1E Nav 1 mM (% inhibition) 25° C. | hTRPV1-N1E Nav 1 mM (% inhibition) 47° C. |
| --- | --- | --- | --- | --- | --- |
| Cc1ccccc1N(CCC1CC[N+](C)(C)CC1)C1Cc2ccccc2C1.[I-] [Example 45, 1,1-Dimethyl-4-[2-((indan-2-yl)(2-methylphenyl)amino)ethyl]piperidinium iodide] | – | 23.1% | 83.3 (N = 2) % | – | – |
| Cc1ccc(N(CC2CCCC[N+]2(C)C)C2Cc3ccccc3C2)cc1.[I-] (centres unmarked) [Example 27, 1,1-Dimethyl-2-[((indan-2-yl)(4-methylphenyl)amino)methyl]piperidinium iodide] | – | 68.1% | 81.3 (N = 2) % | 61.4 (N = 2) % | 71.9 (N = 2) % |
| C[N+]1(C)CCCC[C@@H]1CN(c1ccccc1)C1Cc2ccccc2C1 [Example 33, (R)-1,1-Dimethyl-2-[((indan-2-yl)(phenyl)amino)methyl]piperidinium iodide] | 10 to 100 µM | – | – | – | – |
| CC[N+]1(CC)CCCCC1CCN(c1cccc(F)c1)C1Cc2ccccc2C1.[I-] (centres unmarked) [Example 17, 1,1-diethyl-2-[2-((3-fluorophenyl)(indan-2-yl)amino)ethyl]piperidinium iodide] | 10 to 100 µM | 1% | 86.1 (N = 3) % | 6.1 (N = 3) % | 28.9 (N = 3) % |
| C[N+]1(C)CCCCC1CCN(c1nccs1)C1Cc2ccccc2C1.[I-] (centres unmarked) [Example 39, 1,1-dimethyl-2-[2-((indan-2-yl)(thiazol-2-yl)amino)ethyl]piperidinium iodide] | – | 10.6% | 11.3 (N = 2) % | 31.3 (N = 2) % | 62.4 (N = 2) % |
| CC[N+]1(CC)CCCC1CCN(c1ccccc1)C1Cc2ccccc2C1.[I-] (centres unmarked) [Example 36, 1,1-diethyl-2-[2-((indan-2-yl)(phenyl)amino)ethyl]pyrrolidinium iodide] | 10 to 100 µM | 5.4% | 74.0 (N = 2) % | – | – |
| CC[N+]1(CC)CCCC[C@H]1CCN(c1ccccc1)C1Cc2ccccc2C1.[Br-] [Example 49, (S)-1,1-Diethyl-2-[2-((indan-2-yl)(phenyl)amino)ethyl]piperidinium bromide] | 10 to 100 µM | 22.2% | – | – | – |
| C[N+]1(C)CCCCC1CN(c1ccc(F)cc1)C1Cc2ccccc2C1.[I-] (centres unmarked) [Example 28, 1,1-Dimethyl-2-[((4-fluorophenyl)(indan-2-yl)amino)methyl]piperidinium iodide] | – | 30.2% | 43.7 (N = 2) % | 61.8 (N = 2) % | 86.6 (N = 2) % |
| C[N+]1(C)CCCCC1CCN(c1ccc(F)cc1)C1Cc2ccccc2C1.[I-] (centres unmarked) [Example 15, 1,1-Dimethyl-2-[2-((4-fluorophenyl)(indan-2-yl)amino)ethyl]piperidinium iodide] | 10 to 100 µM | 2.8% | 75.2 (N = 3) % | 0.7 (N = 3) % | 35.0 (N = 3) % |
| CC[N+]1(CC)CCCCC1CN(c1ccc(C)cc1)C1Cc2ccccc2C1.[I-] (centres unmarked) [Example 30, 1,1-Diethyl-2-[((indan-2-yl)(4-methylphenyl)amino)methyl]piperidinium iodide] | – | 59.4% | 97.2 (N = 2) % | Insoluble | Insoluble |
| Cc1ccccc1N(CCC1CCCC[N+]1(CCO)CCO)C1Cc2ccccc2C1.[Br-] (centres unmarked) [Example 46, 1,1-Bis(2-hydroxyethyl)-2-[2-((indan-2-yl)(2-methylphenyl)amino)ethyl]piperidinium bromide] | 10 to 100 µM | 31.8% | 94.4 (N = 2) % | – | – |
| C[N+]1(C)CCCC1CN(c1ccccc1)C1Cc2ccccc2C1.[I-] (centres unmarked) [Example 8, 1,1-dimethyl-2-[((indan-2-yl)(phenyl)amino)methyl]pyrrolidinium iodide] | – | 6.5% | 22.7 (N = 2) % | 39.9 (N = 2) % | 69.5 (N = 2) % |
| Cc1ccc(N(CCC2CCCC[N+]2(C)C)C2Cc3ccccc3C2)cc1.[I-] (centres unmarked) [Example 22, 1,1-Dimethyl-2-[2-((indan-2-yl)(4-methylphenyl)amino)ethyl]piperidinium iodide] | 10 to 100 µM | 8.7% | 62.7 (N = 2) % | 48 (N = 2) % | 69.9 (N = 2) % |
| C[N+]1(C)CCCC1CCN(c1ccccc1)C1Cc2ccccc2C1.[I-] (centres unmarked) [Example 5, 1,1-dimethyl-2-[2-((indan-2-yl)(phenyl)amino)ethyl]pyrrolidinium iodide] | 10 to 100 µM | 21% | 50 (N = 2) % | – | – |
| [Br-].c1ccc(N(CCC2CCCC[N+]23CCCC3)C2Cc3ccccc3C2)cc1 (centres unmarked) [Example 20, 6-[2-((Indan-2-yl)(phenyl)amino)ethyl]-5-azoniaspiro[4.5]decane bromide] | 10 to 100 µM | 11.2% | 94.8 (N = 3) % | 0 (N = 3) % | 48.9 (N = 3) % |

Second part, led by results:

| IC50 | SMILES | hTRPV1-N1E Nav 0.1 mM (% inhibition) 25° C. | hTRPV1-N1E Nav 0.1 mM (% inhibition) 47° C. | hTRPV1-N1E Nav 1 mM (% inhibition) 25° C. | hTRPV1-N1E Nav 1 mM (% inhibition) 47° C. |
| --- | --- | --- | --- | --- | --- |
| 10 to 100 µM | C[N+]1(C)CCCC[C@H]1CN(c1ccccc1)C1Cc2ccccc2C1 [Example 32, (S)-1,1-Dimethyl-2-[((indan-2-yl)(phenyl)amino)methyl]piperidinium iodide] | – | – | – | – |
| 10 to 100 µM | Cc1ccccc1N(CCC1CC[N+](C)(C)CC1)C1Cc2ccccc2C1.[Br-] [Example 40, 1,1-dimethyl-4-[2-((indan-2-yl)(2-methylphenyl)amino)ethyl]piperidinium bromide] | 34.3% | – | – | – |
| 10 to 100 µM | CC[N+]1(CC)CCCCC1CCCN(c1ccccc1)C1Cc2ccccc2C1.[I-] (centres unmarked) [Example 26, 1,1-Diethyl-2-[3-((indan-2-yl)(phenyl)amino)propyl]piperidinium iodide] | 44.6% | 64.7 (N = 2) % | Insoluble | Insoluble |
| 10 to 100 µM | Cc1ccccc1N(CCC1CCCC[N+]1(C)C)C1Cc2ccccc2C1 (centres unmarked) [Example 50, 1,1-Dimethyl-2-[2-((indan-2-yl)(2-methylphenyl)amino)ethyl]piperidinium chloride] | – | – | – | – |
| 10 to 100 µM | C[N+]1(C)CCCCC1CCN(c1cccc(F)c1)C1Cc2ccccc2C1.[I-] (centres unmarked) [Example 14, 1,1-dimethyl-2-[2-((3-fluorophenyl)(indan-2-yl)amino)ethyl]piperidinium iodide] | 6.3% | 76.7 (N = 3) % | 3.8 (N = 3) % | 25.3 (N = 3) % |
| 1 to 10 µM | Cc1ccccc1N(CC[C@H]1CCCC[N+]1(C)C)C1Cc2ccccc2C1 [Example 51, (R)-1,1-Dimethyl-2-[2-((indan-2-yl)(2-methylphenyl)amino)ethyl]piperidinium chloride] | – | – | – | – |
| 1 to 10 µM | CC[N+]1(CC)CCCCC1CCN(c1ccccc1C)C1Cc2ccccc2C1.[I-] (centres unmarked) [Example 25, 1,1-Diethyl-2-[2-((indan-2-yl)(2-methylphenyl)amino)ethyl]piperidinium iodide] | 26.4% | 89.6 (N = 2) % | Insoluble | Insoluble |
